Measured values published in paper PMC6271910, “Exploiting Natural Products to Build Metalla-Assemblies: The Anticancer Activity of Embelin-Derived Rh(III) and Ir(III) Metalla-Rectangles” (Molecules, 2014).
Where two headings read alike, the source gives them in different places.

Columns and labels:
[1] = test system: DU-145 cells (prostate cancer); experiment: MTT assay, DU-145; format: cell-based, human; conditions: averaged over three experiments, read-out: Half maximum inhibitory concentration (IC50), DU-145
Description: (§1) To understand the effect of these complexes on the proliferation of cancerous and noncancerous cells, MTT assays were carried out following the protocol reported by Wilson et al.. The noncancerous (HEK-293) and the human cancerous cell lines (DU-145, A-549 and HeLa) were grown according to the supplier’s recommendations. All cell lines were treated for 48 h at different concentrations of complexes (0.25 µM, 0.5 µM, 0.75 µM, 1 µM, 5 µM, 10 µM, 25 µM, 50 µM and 100 µM). After treatment, the number of viable cells was estimated using a MTT assay. […] Cells treated with doxorubicin in the same concentration range were considered as controls.
(§2) The anticancer activity of the complex was determined using the 3-(4,5-dimethylthiazol-2-yl)-2,5-diphenyltetrazolium bromide (MTT) assay. First 1 × 10^4 cells per well were seeded in Dulbecco’s modified Eagle’s medium (DMEM, 100 µL) supplemented with 10% fetal bovine serum in each well of 96-well microculture plates and incubated for 24 h at 37 °C in a CO2 incubator. Complexes were diluted to the desired concentrations in culture medium and added to the wells with respective vehicle control. After 48 h of incubation, MTT (10 µL, 5 mg mL^−1) was added to each well and the plates were further incubated for 4 h. Then the supernatant from each well was carefully removed, formazan crystals were dissolved in DMSO (100 µL) and absorbance at 570 nm was recorded.

[2] = test system: HeLa cells (cervical cancer); experiment: MTT assay, HeLa; format: cell-based, human; conditions: 48 h, averaged over three experiments, read-out: Half maximum inhibitory concentration (IC50), HeLa
Description: as §1, §2

CT DNA (calf-thymus DNA) = experiment: Thermal denaturation study of CT DNA; format: binding; conditions: for ΔTm of CT DNA: incubation 12 h at 37 °C, PE buffer pH 7.4, complex/DNA ratio 1:1, CT DNA alone melts at 59.3 °C
Description: The DNA binding affinity of the synthesized complexes was evaluated through thermal denaturation studies with duplex CT DNA using a modified reported procedure. […]

[3] = test system: A-549 cells (lung cancer); experiment: MTT assay, A-549; format: cell-based, human
Description: as §1, §2

CT DNA [4] = experiment: CD spectroscopic study with CT DNA; format: binding, calf; conditions: CT DNA/complex 1:0.5 to 1:1, KBPES buffer pH 7.0, 25 °C
Description: Circular dichroism (CD) studies can provide information on the changes in the DNA conformation upon interactions with small molecules. These changes in the DNA topology are giving useful information on the nature of the DNA-complex interactions. […] These bands are characteristic to the profile of the B form of DNA [24].
Circular dichroism (CD) experiments were performed using a Jasco 815 CD spectropolarimeter (Jasco, Tokyo, Japan). CD spectra were recorded from 230 to 300 nm to find the conformational changes in the CT DNA after interaction with the complexes. For each CD experiment, CT DNA (15 × 10^‒6 M) was used initially. Further, for the characterization of complex‒DNA interaction, the CD spectra were recorded in 1:0.5 and 1:1 CT DNA/complex molar ratios. CD titrations were performed in KBPES buffer (30 mM Potassium Phosphate with 100 mM KCl, pH 7.0) at 25 °C. Each spectrum was recorded three times and the average of three scans was taken.

[5] = test system: HEK-293 (normal human embryonic kidney cells); experiment: MTT assay, HEK-293; format: cell-based; conditions: for IC50: 48 h, MTT, noncancerous cells, averaged over three experiments, read-out: Half maximum inhibitory concentration (IC50), HEK-293; for Selectivity for cancerous over noncancerous cells (HEK-293): IC50 on HEK-293 compared with cancer cell lines
Description: as §1, §2

A-549 cells [6] = experiment: Apoptosis assay (annexin-V/propidium iodide flow cytometry); format: cell-based, human; conditions: A-549, 500 nM, 48 h; for Early apoptotic (%): control 0.84; for Late apoptotic (%): control 6.18; for Necrotic (%): control 14.61; for Living cells (%): control 78.37; for Total apoptotic cells (%): early + late apoptotic, control 7.02
CT DNA [7] = experiment: UV-visible spectroscopic titrations with CT DNA; format: binding, calf; conditions: 25 µM complex, KBPES buffer pH 7.0, 25 °C
Text: The mode of the DNA-complex interaction was further studied by UV-visible experiments. The results from these studies will indicate the mode of DNA-complex interaction. The UV-visible spectra of metalla-rectangles 4, 6 and 8, the iridium derivatives, show a prominent absorption band at 210 nm. […] The hyperchromicity of the Soret band of the metalla-rectangles was more evident at 210 nm. A continuous hyperchromicity of the Soret band upon addition of metalla-rectangles 4, 6 and 8 to a CT DNA solution is an indication of electrostatic binding or partial unwinding of the CT DNA [27].
UV-Visible spectroscopic titrations were performed using an ABI Lambda 40 UV/Vis spectrophotometer (Foster City, CA, USA) at 25 °C using 1 cm path length quartz cuvettes. Stock solutions of complex (25 µM) was prepared in DMSO and CT DNA (25 µM) were prepared in KBPES buffer (30 mM Potassium Phosphate with 100 mM KCl, pH 7.0). The quartz cells were thoroughly cleaned with distilled water and followed by nitric acid (~0.1 N) after each experiment. UV-visible absorption titrations were done by adding CT DNA stock solution (25 µM) in KBPES buffer (30 mM Potassium Phosphate with 100 mM KCl, pH 7.0) to the quartz cuvette containing approximately 25 µM complex solutions. Preparation of CT DNA and complex solutions was done on the same day as the experiment. Titrations were performed until the band remained at a fixed wavelength upon successive additions of CT DNA.

A-549 cells [8] = experiment: Cell cycle assay by flow cytometry (propidium iodide); format: cell-based, human; conditions: A-549, 500 nM, 24 h; for Sub G1 (%): control 1.37; for G2/M (%): control 16.37; for S (%): control 17.15; for G0/G1 (%): control 54.62
Description: In order to corroborate the results obtained in the MTT assays and to better understand the action of metalla-rectangles 3 and 8 on cells, the effects on the cell cycle inhibition and the interference in cell proliferations using a standard cell cycle assay were studied. The results obtained are presented in (Table 2). On analyzing the results, it was evident that the cell cycle was inhibited at the subG1 phase with both metalla-rectangles.
Flow cytometric analysis (FACS) was performed to evaluate the distribution of the cells in different cell cycle phases. A-549 cells were incubated with metalla-rectangles 3 and 8 at 500 nM concentration for 24 h. Untreated cells were considered as control sample. Untreated and treated cells were harvested, washed with PBS, fixed in ice cold 70% ethanol and stained with propidium iodide (Sigma Aldrich, St. Louis, MO, USA). Cell cycle was performed by using Becton Dickinson FACS Caliber (Franklin Lakes, NJ, USA).

A-549 cells [9] = experiment: Mitochondrial outer membrane permeability assay (MitoTracker Red, confocal microscopy); format: cell-based, human; conditions: A-549, 500 nM
Description: The aggregation of mitochondria was reported to occur when cells enter into apoptosis, and accordingly led to the release of cytochrome c into the cytosol, which in turn triggered the cascade pathway to apoptosis. From Figure 6, it was clear that mitochondria were getting bundled with metalla-rectangle 3, indicating the onset of apoptosis in A-549 cells.
Compound [3](CF3SO3)4 (500 nM) with treated and untreated A-549 cells were incubated in a medium containing MitoTracker Red™ (50 nM) for 30 min at culture conditions recommended by the supplier. Cells were washed and fixed with 4% paraformaldehyde for 15 min, and permeabilized with Triton X-100 (0.1%) for each 10 min. The cover glasses after PBS wash were mounted on to the glass slides, sealed with nail polish and observed using laser scanning confocal microscopy (Leica TCS SP5, Heidelberg, Germany). The MitoTracker Red™ was excited using 543 nm laser source and the fluorescence emission signals were collected at 570 nm to 635 nm.

[10] = 48 h, averaged over three experiments, read-out: Half maximum inhibitory concentration (IC50), A-549
[11] = 48 h, read-out: IC50 in A-549 cells

Compound | ΔTm of CT DNA (CT DNA (calf-thymus DNA)) | IC50 ([1]; 48 h) | IC50 [5] | IC50 [2] | IC50 [3, 10] | Change of the absorption (Soret) band at 210 nm on addition of CT DNA (CT DNA [7]) | also measured
COc1cccc2c1C(=O)c1c(O)c3c(c(O)c1C2=O)C[C@@](O)(C(=O)CO)C[C@@H]3O[C@H]1C[C@H](N)[C@H](O)[C@H](C)O1 [doxorubicin, reference compound] | 9.5 °C |  |  |  |  |  | IC50 ([1]; Homo sapiens, DU-145, 48 h): 1280 ± 200 nM; IC50 ([2]; Homo sapiens, HeLa): 910 ± 200 nM; IC50 ([3]; Homo sapiens, A549, 48 h, averaged over three experiments, read-out: Half maximum inhibitory concentration (IC50), A-549): 850 ± 100 nM
[(η^5-C5Me5)4Ir4(μ2-1,2-bis(4-pyridyl)ethylene-ĸN)2(μ4-C6HRO4-ĸO)2](CF3SO3)4 [[8](CF3SO3)4] | 12.7 °C | 720 ± 200 nM | 70800 ± 400 nM | 590 ± 200 nM | 670 ± 400 nM | continuous increase of its intensity | Change of the positive CD band of CT DNA (275 nm) (CT DNA [4]): higher hyperchromicity; Selectivity for cancerous over noncancerous cells (HEK-293) [5]: two orders of magnitude; IC50 [3, 11]: ~670 nM; Early apoptotic (%) (A-549 cells [6]): 1.58%; Late apoptotic (%) (A-549 cells [6]): 13.04%; Necrotic (%) (A-549 cells [6]): 22.92%; Living cells (%) (A-549 cells [6]): 62.46%; Total apoptotic cells (%) (A-549 cells [6]): 14.62%; Sub G1 (%) (A-549 cells [8]): 11.98%; G2/M (%) (A-549 cells [8]): 3.49%; S (%) (A-549 cells [8]): 7.95%; G0/G1 (%) (A-549 cells [8]): 66.54%
[(η^5-C5Me5)4Ir4(μ2-4,4'-bipyridine-ĸN)2(μ4-C6HRO4-ĸO)2](CF3SO3)4 [[6](CF3SO3)4] | 7.9 °C | 2530 ± 200 nM | 40300 ± 400 nM | 1040 ± 300 nM | 840 ± 100 nM | continuous increase of its intensity | 
[(η^5-C5Me5)4Ir4(μ2-pyrazine-ĸN)2(μ4-C6HRO4-ĸO)2](CF3SO3)4 [[4](CF3SO3)4] | 6.8 °C | 16000 ± 400 nM | 31200 ± 500 nM | 4160 ± 300 nM | 3180 ± 200 nM | continuous increase of its intensity | 
[(η^5-C5Me5)4Rh4(μ2-1,2-bis(4-pyridyl)ethylene-ĸN)2(μ4-C6HRO4-ĸO)2](CF3SO3)4 [[7](CF3SO3)4] | 8.2 °C | 4980 ± 300 nM | 62100 ± 300 nM | 5750 ± 200 nM | 2010 ± 200 nM | same hyperchromicity | 
[(η^5-C5Me5)4Rh4(μ2-4,4'-bipyridine-ĸN)2(μ4-C6HRO4-ĸO)2](CF3SO3)4 [[5](CF3SO3)4] | 7.3 °C | 4670 ± 200 nM | 41300 ± 400 nM | 1010 ± 300 nM | 670 ± 100 nM | same hyperchromicity | 
[(η^5-C5Me5)4Rh4(μ2-pyrazine-ĸN)2(μ4-C6HRO4-ĸO)2](CF3SO3)4 [[3](CF3SO3)4] | 12.9 °C | 540 ± 200 nM | 62000 ± 500 nM | 520 ± 200 nM | 500 ± 100 nM | same hyperchromicity | IC50 ([1]; 48 h, listed as [3]^4+): 500 nM; Change of the positive CD band of CT DNA (275 nm) (CT DNA [4]): slight hyperchromicity; Selectivity for cancerous over noncancerous cells (HEK-293) [5]: two orders of magnitude; IC50 ([2]; listed as [3]^4+): 500 nM; Melting temperature of CT DNA in the presence of the compound (CT DNA (calf-thymus DNA); CT DNA alone 59.3 °C): 72.2 °C; Effect on mitochondria distribution (MitoTracker Red) (A-549 cells [9]): aggregations of mitochondria were observed; IC50 [3, 11]: ~500 nM; Early apoptotic (%) (A-549 cells [6]): 4.73%; Late apoptotic (%) (A-549 cells [6]): 23.30%; Necrotic (%) (A-549 cells [6]): 11.57%; Living cells (%) (A-549 cells [6]): 60.40%; Total apoptotic cells (%) (A-549 cells [6]): 28.03%; Total apoptotic cells (%) (A-549 cells [6]; listed as 3): about 28.03%; Sub G1 (%) (A-549 cells [8]): 31.97%; G2/M (%) (A-549 cells [8]): 1.35%; S (%) (A-549 cells [8]): 2.87%; G0/G1 (%) (A-549 cells [8]): 56.29%
